Experimental data published in ChEMBL document CHEMBL1909294, “Translating clinical findings into knowledge in drug safety evaluation--drug induced liver injury prediction system (DILIps)” (PLoS Comput Biol, 2011).

Legend:
[1] = system: Hepatotoxicity;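 for HepSE bilirubinemia: bilirubinemia hepatic side effect score drawn from the DILIps training data, a prediction system for drug-induced liver injury; call rule not given here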;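 for HepSE cirrhosis: cirrhosis hepatic side effect score taken from the DILIps (drug-induced liver injury prediction) training set; call rule not given here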;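 for HepSE hepatomegaly: hepatic side effect score for hepatomegaly, taken from the training set of the DILIps drug-induced liver injury prediction system; call rule not given here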;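 for HepSE jaundice: Jaundice-related hepatic side-effect score drawn from the training data of the DILIps (drug-induced liver injury prediction system); call rule not given here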;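 for HepSE liver fatty: hepatic side effect score for fatty liver, taken from the DILIps training set for predicting drug-induced liver injury; call rule not given here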;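 for HepSE liver function tests abnormal: hepatic side effect score taken from the DILIps (drug-induced liver injury prediction system) training data, here covering abnormal liver function test findings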
[2] = system: Hepatotoxicity; remark: listed apart in the source;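 for HepSE bilirubinemia: bilirubinemia hepatic side effect score drawn from the DILIps training data, a prediction system for drug-induced liver injury; call rule not given here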;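 for HepSE cirrhosis: cirrhosis hepatic side effect score taken from the DILIps (drug-induced liver injury prediction) training set; call rule not given here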;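 for HepSE hepatomegaly: hepatic side effect score for hepatomegaly, taken from the training set of the DILIps drug-induced liver injury prediction system; call rule not given here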;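 for HepSE jaundice: Jaundice-related hepatic side-effect score drawn from the training data of the DILIps (drug-induced liver injury prediction system); call rule not given here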;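 for HepSE liver fatty: hepatic side effect score for fatty liver, taken from the DILIps training set for predicting drug-induced liver injury; call rule not given here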;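 for HepSE liver function tests abnormal: hepatic side effect score taken from the DILIps (drug-induced liver injury prediction system) training data, here covering abnormal liver function test findings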
[3] = system: Hepatotoxicity; remark: listed apart in the source;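 for HepSE bilirubinemia: bilirubinemia hepatic side effect score drawn from the DILIps training data, a prediction system for drug-induced liver injury; call rule not given here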;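 for HepSE cirrhosis: cirrhosis hepatic side effect score taken from the DILIps (drug-induced liver injury prediction) training set; call rule not given here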;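 for HepSE hepatomegaly: hepatic side effect score for hepatomegaly, taken from the training set of the DILIps drug-induced liver injury prediction system; call rule not given here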;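 for HepSE jaundice: Jaundice-related hepatic side-effect score drawn from the training data of the DILIps (drug-induced liver injury prediction system); call rule not given here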;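 for HepSE liver fatty: hepatic side effect score for fatty liver, taken from the DILIps training set for predicting drug-induced liver injury; call rule not given here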;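 for HepSE liver function tests abnormal: hepatic side effect score taken from the DILIps (drug-induced liver injury prediction system) training data, here covering abnormal liver function test findings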
[4] = system: Hepatotoxicity; remark: listed apart in the source;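 for HepSE bilirubinemia: bilirubinemia hepatic side effect score drawn from the DILIps training data, a prediction system for drug-induced liver injury; call rule not given here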;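 for HepSE cirrhosis: cirrhosis hepatic side effect score taken from the DILIps (drug-induced liver injury prediction) training set; call rule not given here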;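 for HepSE jaundice: Jaundice-related hepatic side-effect score drawn from the training data of the DILIps (drug-induced liver injury prediction system); call rule not given here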;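 for HepSE liver fatty: hepatic side effect score for fatty liver, taken from the DILIps training set for predicting drug-induced liver injury; call rule not given here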;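 for HepSE liver function tests abnormal: hepatic side effect score taken from the DILIps (drug-induced liver injury prediction system) training data, here covering abnormal liver function test findings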
[5] = system: Hepatotoxicity; remark: listed apart in the source
[6] = system: Hepatotoxicity; remark: listed apart in the source
[7] = system: Hepatotoxicity; remark: listed apart in the source
[8] = system: Hepatotoxicity; remark: listed apart in the source
[9] = system: Hepatotoxicity; remark: listed apart in the source
[10] = system: Hepatotoxicity; remark: listed apart in the source
[11] = system: Hepatotoxicity; remark: listed apart in the source
[12] = system: Hepatotoxicity; remark: listed apart in the source
[13] = system: Hepatotoxicity; remark: listed apart in the source
[14] = system: Hepatotoxicity; remark: listed apart in the source

SMILES: Nc1nc2c(ncn2CCC(CO)CO)c(=O)[nH]1 [PENCICLOVIR]
- HepSE_liver fatty [1]: 0
- HepSE_cholelithiasis [2]: 0
- HepSE_bilirubinemia [3]: 0
- HepSE_jaundice [4]: 0
- HepSE_liver function tests abnormal [5]: 0
- HepSE_hepatic necrosis [6]: 0
- HepSE_hepatitis [7]: 0
- HepSE_cirrhosis [8]: 0
- HepSE_hepatomegaly [9]: 0
- HepSE_Combined Scores [10]: 0
- HepSE_hepatic failure [11]: 0
- HepSE_elevated liver function tests [12]: 0
- HepSE_cholecystitis [13]: 0
- HepSE_liver disease [14]: 0

SMILES: CC(C)(S)[C@@H](N)C(=O)O [PENICILLAMINE]
- HepSE_liver fatty [1]: 0
- HepSE_cholelithiasis [2]: 0
- HepSE_bilirubinemia [3]: 0
- HepSE_jaundice [4]: 0
- HepSE_liver function tests abnormal [5]: 0
- HepSE_hepatic necrosis [6]: 0
- HepSE_hepatitis [7]: 0
- HepSE_cirrhosis [8]: 0
- HepSE_hepatomegaly [9]: 0
- HepSE_Combined Scores [10]: 1
- HepSE_hepatic failure [11]: 1
- HepSE_elevated liver function tests [12]: 0
- HepSE_cholecystitis [13]: 0
- HepSE_liver disease [14]: 0

SMILES: CC1(C)S[C@@H]2[C@H](NC(=O)Cc3ccccc3)C(=O)N2[C@H]1C(=O)O [PENICILLIN G]
- HepSE_liver fatty [1]: 0
- HepSE_cholelithiasis [2]: 0
- HepSE_bilirubinemia [3]: 0
- HepSE_jaundice [4]: 0
- HepSE_liver function tests abnormal [5]: 0
- HepSE_hepatic necrosis [6]: 0
- HepSE_hepatitis [7]: 0
- HepSE_cirrhosis [8]: 0
- HepSE_hepatomegaly [9]: 0
- HepSE_Combined Scores [10]: 0
- HepSE_hepatic failure [11]: 0
- HepSE_elevated liver function tests [12]: 0
- HepSE_cholecystitis [13]: 0
- HepSE_liver disease [14]: 0

SMILES: CC1(C)S[C@@H]2[C@H](NC(=O)COc3ccccc3)C(=O)N2[C@H]1C(=O)O [PENICILLIN V]
- HepSE_liver fatty [1]: 0
- HepSE_cholelithiasis [2]: 0
- HepSE_bilirubinemia [3]: 0
- HepSE_jaundice [4]: 0
- HepSE_liver function tests abnormal [5]: 0
- HepSE_hepatic necrosis [6]: 0
- HepSE_hepatitis [7]: 0
- HepSE_cirrhosis [8]: 0
- HepSE_hepatomegaly [9]: 0
- HepSE_Combined Scores [10]: 0
- HepSE_hepatic failure [11]: 0
- HepSE_elevated liver function tests [12]: 0
- HepSE_cholecystitis [13]: 0
- HepSE_liver disease [14]: 0

SMILES: CCCC(C)C1(CC)C(=O)NC(=O)NC1=O (stereo unspecified) [PENTOBARBITAL]
- HepSE_liver fatty [1]: 0
- HepSE_cholelithiasis [2]: 0
- HepSE_bilirubinemia [3]: 0
- HepSE_jaundice [4]: 0
- HepSE_liver function tests abnormal [5]: 0
- HepSE_hepatic necrosis [6]: 0
- HepSE_hepatitis [7]: 0
- HepSE_cirrhosis [8]: 0
- HepSE_hepatomegaly [9]: 0
- HepSE_Combined Scores [10]: 0
- HepSE_hepatic failure [11]: 0
- HepSE_elevated liver function tests [12]: 0
- HepSE_cholecystitis [13]: 0
- HepSE_liver disease [14]: 0

SMILES: OC[C@H]1O[C@@H](n2cnc3c2NC=NC[C@H]3O)C[C@@H]1O [PENTOSTATIN]
- HepSE_liver fatty [1]: 0
- HepSE_cholelithiasis [2]: 0
- HepSE_bilirubinemia [3]: 0
- HepSE_jaundice [4]: 0
- HepSE_liver function tests abnormal [5]: 1
- HepSE_hepatic necrosis [6]: 0
- HepSE_hepatitis [7]: 0
- HepSE_cirrhosis [8]: 0
- HepSE_hepatomegaly [9]: 0
- HepSE_Combined Scores [10]: 3
- HepSE_hepatic failure [11]: 0
- HepSE_elevated liver function tests [12]: 1
- HepSE_cholecystitis [13]: 0
- HepSE_liver disease [14]: 1

SMILES: CC(=O)CCCCn1c(=O)c2c(ncn2C)n(C)c1=O [PENTOXIFYLLINE]
- HepSE_liver fatty [1]: 0
- HepSE_cholelithiasis [2]: 0
- HepSE_bilirubinemia [3]: 0
- HepSE_jaundice [4]: 1
- HepSE_liver function tests abnormal [5]: 0
- HepSE_hepatic necrosis [6]: 0
- HepSE_hepatitis [7]: 1
- HepSE_cirrhosis [8]: 0
- HepSE_hepatomegaly [9]: 0
- HepSE_Combined Scores [10]: 3
- HepSE_hepatic failure [11]: 0
- HepSE_elevated liver function tests [12]: 0
- HepSE_cholecystitis [13]: 1
- HepSE_liver disease [14]: 0

SMILES: CCCN1C[C@H](CSC)C[C@@H]2c3cccc4[nH]cc(c34)C[C@H]21 [PERGOLIDE]
- HepSE_liver fatty [1]: 0
- HepSE_cholelithiasis [2]: 1
- HepSE_bilirubinemia [3]: 0
- HepSE_jaundice [4]: 1
- HepSE_liver function tests abnormal [5]: 1
- HepSE_hepatic necrosis [6]: 0
- HepSE_hepatitis [7]: 1
- HepSE_cirrhosis [8]: 0
- HepSE_hepatomegaly [9]: 1
- HepSE_Combined Scores [10]: 6
- HepSE_hepatic failure [11]: 0
- HepSE_elevated liver function tests [12]: 0
- HepSE_cholecystitis [13]: 1
- HepSE_liver disease [14]: 0

SMILES: CCC[C@H](N[C@@H](C)C(=O)N1[C@H](C(=O)O)C[C@@H]2CCCC[C@@H]21)C(=O)OCC [PERINDOPRIL]
- HepSE_liver fatty [1]: 0
- HepSE_cholelithiasis [2]: 0
- HepSE_bilirubinemia [3]: 0
- HepSE_jaundice [4]: 1
- HepSE_liver function tests abnormal [5]: 0
- HepSE_hepatic necrosis [6]: 0
- HepSE_hepatitis [7]: 1
- HepSE_cirrhosis [8]: 0
- HepSE_hepatomegaly [9]: 0
- HepSE_Combined Scores [10]: 3
- HepSE_hepatic failure [11]: 1
- HepSE_elevated liver function tests [12]: 0
- HepSE_cholecystitis [13]: 0
- HepSE_liver disease [14]: 0
